Measurements published in patent publication US9868727B2, “Factor XIa inhibitors” (Merck Sharp & Dohme Corp., priority 2014, dated 2018).

Each molecule was assayed against T1, purified Human plasma kallikrein (Homo sapiens, UniProt P03952) (assay: Kallikrein Assay). Settings: Plasma Kallekrein IC50; fluorogenic substrate Acetyl-K-P-R-AFC, 0.5 nM enzyme, pH 7.4; read-out: PK IC50.
T1 construct: yields a heavy chain (371 amino acids) and a light chain (248 amino acids); purchased Enzyme Research Laboratories
T1 sequence (P03952 391-638 limits assumed): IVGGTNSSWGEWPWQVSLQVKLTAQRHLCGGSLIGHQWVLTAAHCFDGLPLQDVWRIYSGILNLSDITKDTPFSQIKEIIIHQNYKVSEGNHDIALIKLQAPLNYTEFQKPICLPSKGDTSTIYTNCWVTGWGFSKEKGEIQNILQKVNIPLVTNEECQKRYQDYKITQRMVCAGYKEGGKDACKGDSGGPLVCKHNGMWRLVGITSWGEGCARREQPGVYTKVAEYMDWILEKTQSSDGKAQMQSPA
T1 sequence (P03952 20-390 partner limits assumed): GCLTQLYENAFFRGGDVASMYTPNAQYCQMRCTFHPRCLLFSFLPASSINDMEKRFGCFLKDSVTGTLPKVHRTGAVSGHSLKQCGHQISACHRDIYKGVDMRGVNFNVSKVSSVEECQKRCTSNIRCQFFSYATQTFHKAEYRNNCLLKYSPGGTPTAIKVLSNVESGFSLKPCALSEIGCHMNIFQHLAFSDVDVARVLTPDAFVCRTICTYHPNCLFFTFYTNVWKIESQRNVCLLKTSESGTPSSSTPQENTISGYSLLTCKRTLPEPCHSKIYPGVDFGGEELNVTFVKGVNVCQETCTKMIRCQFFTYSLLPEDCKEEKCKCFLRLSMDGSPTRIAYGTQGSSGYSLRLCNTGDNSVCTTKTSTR
Assay type: biochemical
Procedure: (§1) The effectiveness of a compound of the present invention as an inhibitor of Kallikrein can be determined using a relevant purified serine protease, and an appropriate synthetic substrate. The rate of hydrolysis of the chromogenic or fluorogenic substrate by the relevant serine protease was measured both in the absence and presence of compounds of the present invention. Assays were conducted at room temperature or at 37° C. […] A decrease in the rate of fluorescence change in the presence of inhibitor is indicative of enzyme inhibition. Such methods are known to one skilled in the art. The results of this assay are expressed as the inhibitory constant, K1.
Kallikrein determinations were made in 50 mM HEPES buffer at pH 7.4 containing 150 mM NaCl, 5 mM CaCl2, and 0.1% PEG 8000 (polyethylene glycol; Fisher Scientific). Determinations were made using purified Human plasma kallikrein at a final concentration of 0.5 nM (Enzyme Research Laboratories) and the synthetic substrate, Acetyl-K—P—R-AFC (Sigma # C6608) at a concentration of […].
Times required to achieve equilibration between enzyme and inhibitor were determined in control experiments. The reactions were performed under linear progress curve conditions and fluorescence increase measured at 405 Ex/510 Em nm. […] IC50 was determined by inflection point from a four parameter logistic curve fit. Ki was calculated using the Cheng Prusoff equation, Ki=IC50/(1+([S]/Km)).

| IC50 [µM] | Compound |
| --- | --- |
| 0.207 | COC(=O)Nc1ccc(-c2cnc(C(CC3CC3)c3ccc(-c4cc(Cl)ccc4-n4cnnn4)c[n+]3[O-])[nH]2)cc1 (single isomer, unassigned) [Example 27, 5-(5-chloro-2-(1H-tetrazol-1-yl)phenyl)-2-(2-cyclopropyl-1-(5-(4-((methoxycarbonyl)amino)phenyl)-1H-imidazol-2-yl)ethyl)pyridine 1-oxide] |
| 0.0208 | COC(=O)Nc1ccc(-c2cnc(C(CC3CC3)c3ccc(-c4cc(Cl)ccc4-n4cnnn4)c[n+]3[O-])[nH]2)cc1 (single isomer, unassigned) [Example 28, 5-(5-chloro-2-(1H-tetrazol-1-yl)phenyl)-2-(2-cyclopropyl-1-(5-(4-((methoxycarbonyl)amino)phenyl)-1H-imidazol-2-yl)ethyl)pyridine 1-oxide] |

What follows are molecules tested against T2, purified human Factor XIa (Homo sapiens, UniProt P03951) (assay: Factor XIa Assay). Settings: fluorogenic substrate Z-Gly-Pro-Arg-AFC 100 μM, 40 pM enzyme, pH 7.4, read-out: F11a IC50.
T2 construct: purified human Factor XIa; purchased Sekisui Diagnostics
T2 sequence (P03951 388-625 limits assumed): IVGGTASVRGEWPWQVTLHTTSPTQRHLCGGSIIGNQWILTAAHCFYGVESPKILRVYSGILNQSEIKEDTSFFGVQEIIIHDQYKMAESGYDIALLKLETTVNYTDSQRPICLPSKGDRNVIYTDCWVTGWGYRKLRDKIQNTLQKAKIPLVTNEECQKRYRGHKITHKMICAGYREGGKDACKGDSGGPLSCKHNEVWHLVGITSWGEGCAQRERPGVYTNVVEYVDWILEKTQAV
T2 sequence (P03951 19-387 partner limits assumed): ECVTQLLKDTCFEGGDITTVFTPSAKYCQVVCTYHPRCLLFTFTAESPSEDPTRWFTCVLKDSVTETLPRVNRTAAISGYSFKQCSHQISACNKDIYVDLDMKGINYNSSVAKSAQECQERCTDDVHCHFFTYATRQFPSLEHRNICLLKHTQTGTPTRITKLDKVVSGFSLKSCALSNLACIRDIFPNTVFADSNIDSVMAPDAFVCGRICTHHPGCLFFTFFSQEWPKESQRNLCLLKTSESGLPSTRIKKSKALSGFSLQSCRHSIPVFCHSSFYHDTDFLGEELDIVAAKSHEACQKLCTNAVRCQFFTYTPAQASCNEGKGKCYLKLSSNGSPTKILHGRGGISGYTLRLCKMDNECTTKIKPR
Assay type: biochemical
Procedure: as §1, with “Coagulation Factor XIa” for “Kallikrein”, “The results of this assay are expressed as the inhibitory constant, K1.” left out
Factor XIa determinations were made in 50 mM HEPES buffer at pH 7.4 containing 150 mM NaCl, 5 mM CaCl2, and 0.1% PEG 8000 (polyethylene glycol; JT Baker or Fisher Scientific). Determinations were made using purified human Factor XIa at a final concentration of 40 pM (Sekisui Diagnostics) and he synthetic substrate, Z-Gly-Pro-Arg-AFC, TFA salt (Sigma #C0980) at a concentration of 100 μM.
Activity assays were performed by diluting a stock solution of substrate at least tenfold to a final concentration ≦0.1 Km into a solution containing enzyme or enzyme equilibrated with inhibitor. Times required to achieve equilibration between enzyme and inhibitor were determined in control experiments. Initial velocities of product formation in the absence (VO) or presence of inhibitor (Vi) were measured. Assuming competitive inhibition, and that unity is negligible compared Km/[S], [I]/e, and [I]/e (where [S], [I], and e respectively represent the total concentrations, of substrate, inhibitor and enzyme), the equilibrium constant (Ki) for dissociation of the inhibitor from the enzyme can be obtained from the dependence of VO/Vi on [I] shown in the following equation.

| IC50 [µM] | Compound |
| --- | --- |
| 0.00291 | CC(C)OC(=O)Nc1ccc(-c2cnc(C(CC3CC3)c3ccc(-c4cc(Cl)ccc4-n4cnnn4)c[n+]3[O-])[nH]2)cc1 (racemic) [Example 46] |
| 0.631 | COC(=O)Nc1ccc(-c2cnc(C(CC3CC3)c3ccc(-c4cc(Cl)ccc4-n4cncn4)c[n+]3[O-])[nH]2)cc1 (racemic) [Example 68] |
| 0.834 | COC(=O)Nc1ccc(-c2cnc(C(CC3CC3)c3ccc(-c4cc(Cl)ccc4-c4cocn4)c[n+]3[O-])[nH]2)cc1 (racemic) [Example 71] |
| 1 | COC(=O)Nc1ccc(-c2cnc(C(CC3CC3)c3ccc(-c4cc(Cl)ccc4-n4cccn4)c[n+]3[O-])[nH]2)cc1 (racemic) [Example 73] |
| 0.011 | COC(=O)Nc1ccc(-c2cnc(C(CC3CC3)c3ccc(-c4cc(Cl)ccc4-n4cc(C(F)F)nn4)c[n+]3[O-])[nH]2)cc1 (racemic) [Example 74] |
| 0.289 | COC(=O)Nc1ccc(-c2c[nH]c(C(Cc3ccccc3)c3ccc(-c4c(F)ccc(Cl)c4F)c[n+]3[O-])n2)cc1 (single isomer, unassigned) [Example 6] |
| 0.341 | COC(=O)Nc1ccc(-c2c[nH]c(C(Cc3ccc(F)cc3)c3ccc(-c4cc(Cl)ccc4C(F)F)c[n+]3[O-])n2)cc1 (single isomer, unassigned) [Example 12, 5-(5-chloro-2-(difluoromethyl)phenyl)-2-(2-(4-fluorophenyl)-1-(4-(4-((methoxycarbonyl)amino)phenyl)-1H-imidazol-2-yl)ethyl)pyridine 1-oxide] |
| 0.0748 | COC(=O)Nc1ccc(-c2cnc(C(CC3CC3)c3ccc(-c4cc(Cl)ccc4-n4cnnn4)c[n+]3[O-])[nH]2)c(F)c1 (single isomer, unassigned) [Example 37] |
| 0.204 | O=C(O)c1cccc(-c2cnc(C(CC3CC3)c3ccc(-c4cc(Cl)ccc4-n4cnnn4)c[n+]3[O-])[nH]2)c1F (single isomer, unassigned) [Example 52, 3-[2-(1-{5-[5-chloro-2-(1H-tetrazol-1-yl)phenyl]-1-oxidopyridin-2-yl}-2-cyclopropylethyl)-1H-imidazol-5-yl]-2-fluorobenzoic acid] |
| 0.071 | O=C(O)c1cccc(-c2c[nH]c(C(CC3CC3)c3ccc(-c4cc(Cl)ccc4-n4cnnn4)c[n+]3[O-])n2)c1 (single isomer, unassigned) [Example 54] |
| 0.593 | O=C(O)c1ccc(-c2cnc(C(CC3CC3)c3ccc(-c4cc(Cl)ccc4-n4cnnn4)c[n+]3[O-])[nH]2)cc1 (single isomer, unassigned) [Example 55] |
| 1 | COC(=O)c1scc(-c2cnc(C(CC3CC3)c3ccc(-c4cc(Cl)ccc4-n4cnnn4)c[n+]3[O-])[nH]2)c1F (single isomer, unassigned) [Example 62, Methyl 4-[2-(1-{5-[5-chloro-2-(1H-tetrazol-1-yl)phenyl]-1-oxidopyridin-2-yl}-2-cyclopropylethyl)-1H-imidazol-5-yl]-3-fluorothiophene-2-carboxylate] |
| 0.271 | COC(=O)Nc1ccc(-c2cnc([C@@H](Cc3ccccc3)c3ccc(-c4cc(Cl)ccc4-c4cnco4)c[n+]3[O-])[nH]2)cc1 [Example 26] |

More lines, now with the values behind:

| Compound | IC50 [µM] |
| --- | --- |
| COC(=O)Nc1ccc(-c2c[nH]c(C(Cc3ccc(F)cc3)c3ccc(-c4c(C#N)ccc(Cl)c4F)c[n+]3[O-])n2)cc1 (racemic) [Example 14] | 0.0599 |
| COC(=O)Nc1ccc(-c2c[nH]c(C(Cc3ccc(F)cc3)c3ccc(-c4cc(Cl)ccc4OC(F)F)c[n+]3[O-])n2)cc1 (racemic) [Example 15] | 0.0342 |
| COC(=O)Nc1ccc(-c2cnc(C(CC3CC3)c3ccc(-c4cc(Cl)ccc4-n4ccnn4)c[n+]3[O-])[nH]2)cc1 (racemic) [Example 65, 5-(5-Chloro-2-(1H-1,2,3-triazol-1-yl)phenyl)-2-(2-cyclopropyl-1-(5-(4-((methoxycarbonyl)amino)phenyl)-1H-imidazol-2-yl)ethyl)pyridine 1-oxide] | 0.0119 |
| COC(=O)Nc1ccc(-c2cnc(C(CC3CC3)c3ccc(-c4cc(Cl)ccc4-n4cnnc4)c[n+]3[O-])[nH]2)cc1 (racemic) [Example 66, 5-(5-chloro-2-(4H-1,2,4-triazol-4-yl)phenyl)-2-(2-cyclopropyl-1-(5-(4-((methoxycarbonyl)amino)phenyl)-1H-imidazol-2-yl)ethyl)pyridine 1-oxide] | 0.0129 |
| COC(=O)Nc1ccc(-c2cnc(C(CC3CC3)c3ccc(-c4cc(Cl)ccc4-n4cc(C(F)F)cn4)c[n+]3[O-])[nH]2)cc1 (racemic) [Example 75] | 0.931 |
| N#Cc1ccc(-c2c[nH]c(C(Cc3ccc(F)cc3)c3ccc(-c4cc(Cl)ccc4-n4cnnn4)c[n+]3[O-])n2)cc1 (single isomer, unassigned) [Example 19] | 0.311 |
| [O-][n+]1cc(-c2cc(Cl)ccc2-n2cnnn2)ccc1C(Cc1ccc(F)cc1)c1nc(-c2ccc(Cl)cc2)c[nH]1 (single isomer, unassigned) [Example 21] | 0.128 |
| N#Cc1ccc(-c2cnc(C(CC3CC3)c3ccc(-c4cc(Cl)ccc4-n4cnnn4)c[n+]3[O-])[nH]2)cc1 (single isomer, unassigned) [Example 30, 4-[2-(1-{5-[5-chloro-2-(1H-tetrazol-1-yl)phenyl]-1-oxidopyridin-2-yl}-2-cyclopropylethyl)-1H-imidazol-5-yl]benzonitrile] | 0.266 |
| [O-][n+]1cc(-c2cc(Cl)ccc2-n2cnnn2)ccc1C(CC1CC1)c1ncc(-c2cccc(F)c2)[nH]1 (single isomer, unassigned) [Example 31] | 1 |
| N#Cc1cccc(-c2cnc(C(CC3CC3)c3ccc(-c4cc(Cl)ccc4-n4cnnn4)c[n+]3[O-])[nH]2)c1 (single isomer, unassigned) [Example 35] | 1 |
| Nc1ccc(-c2cnc(C(CC3CC3)c3ccc(-c4cc(Cl)ccc4-n4cnnn4)c[n+]3[O-])[nH]2)c(Cl)n1 (single isomer, unassigned) [Example 48, 6-chloro-5-[2-(1-{5-[5-chloro-2-(1H-tetrazol-1-yl)phenyl]-1-oxidopyridin-2-yl}-2-cyclopropylethyl)-1H-imidazol-5-yl]pyridin-2-amine] | 0.072 |
| NC(=O)c1scc(-c2cnc(C(CC3CC3)c3ccc(-c4cc(Cl)ccc4-n4cnnn4)c[n+]3[O-])[nH]2)c1F (single isomer, unassigned) [Example 59, 2-(1-(5-(5-carbamoyl-4-fluorothiophen-3-yl)-1H-imidazol-2-yl)-2-cyclopropylethyl)-5-(5-chloro-2-(1H-tetrazol-1-yl)phenyl)pyridine 1-oxide] | 0.11 |
| COC(=O)Nc1ccc(-c2cnc(C(CC3CC3)c3ccc(-c4cc(Cl)ccc4-c4cnco4)c[n+]3[O-])[nH]2)cc1 (single isomer, unassigned) [Example 70] | 1 |
| COC(=O)Nc1ccc(-c2[nH]c(C(CC3CC3)c3ccc(-c4cc(Cl)ccc4-n4cnnn4)c[n+]3[O-])nc2Cl)cc1 (single isomer, unassigned) [Example 78, 5-(5-chloro-2-(1H-tetrazol-1-yl)phenyl)-2-(1-(4-chloro-5-(4-((methoxycarbonyl)amino)phenyl)-1H-imidazol-2-yl)-2-cyclopropylethyl)pyridine 1-oxide] | 0.0544 |
